Measured values taken from PMC11969009 (Nature Communications, 2025).
Several values for one entry are separate records, joined by “and”; a condition that tells them apart may be missing. Equal values may be shown once. Read-outs that look alike come from different tables or passages of the source.

Key:
[1] = tested on: SARS-CoV-2 P21; parameters: species or system C57BL/6 (WT) mice; details: mouse, in vivo
[2] = tested on: SARS-CoV-2 clinical isolate VIC001; experiment: microbe, parasite or virus in culture; type: cell-based
[3] = target: SARS-CoV-2 PLpro (Severe acute respiratory syndrome coronavirus 2, UniProt P0DTD1); experiment: biochemical
[4] = target: SARS-CoV PLpro (Severe acute respiratory syndrome coronavirus, UniProt P0C6X7); experiment: biochemical; parameters: inhibition of SARS-CoV PLpro, UbRh dose-response replicate value: unit: %
[5] = target: MERS-CoV PLpro (Middle East respiratory syndrome-related coronavirus, UniProt K9N7C7); type: biochemical; parameters: unit: %
[6] = target: HKU1 PLpro (Human coronavirus HKU1, UniProt P0C6X2); experiment: biochemical; type: biochemical; parameters: inhibition of HKU1 PLpro, UbRh dose-response replicate value: unit: %
[7] = target: OC43 PLpro (Human coronavirus OC43, UniProt P0C6X6); type: biochemical; parameters: unit not given here
[8] = target: NL63 PL2pro (Human coronavirus NL63, UniProt P0C6X5); experiment: biochemical; parameters: inhibition of NL63 PL2pro, UbRh dose-response replicate value: unit: %
[9] = target: 229E PL2pro (Human coronavirus 229E, UniProt P0C6X1); experiment: biochemical; parameters: inhibition of 229E PL2pro, UbRh dose-response replicate value: unit: %
[10] = target: USP21 (Homo sapiens, UniProt Q9UK80); type: biochemical

For `CCO/N=C(/c1ccc2cc(OC)ccc2c1)[C@@H]1CCCN([C@H]2CC[C@@H](O)CC2)C1` [P8-150], the “Log2 Fold change IL-12p70” value [1] was -2.36.

`CO/N=C(/c1ccc2cc(OC)ccc2c1)[C@@H]1CCCN([C@H]2CC[C@@H](O)CC2)C1` [WEHI P4] was tested, and the “Ext Data Fig 2f dose response (0 µM = 100)” value (shortened to “Ext Data Fig 2f dose response”) ([2]; concentration 0.01 µM) was 109.2308 and 92.5900 and 114.0845 and 104.0541 and 89.7436, the “Ext Data Fig 2f dose response” value ([2]; concentration 0.02 µM) was 101.5385 and 95.0600 and 95.7746 and 97.2973 and 106.4103 and the “Ext Data Fig 2f dose response” value ([2]; concentration 0.04 µM) was 107.6923 and 74.0700 and 95.7746 and 91.8919 and 82.0513. The “Ext Data Fig 2f dose response” value ([2]; concentration 0.08 µM) was 93.8462 and 80.2500 and 109.8592 and 101.3514 and 93.5897 and the “Ext Data Fig 2f dose response” value ([2]; concentration 5 µM) was 0.0000.

In the case of `CCO/N=C(/c1ccc2cc(OC)ccc2c1)[C@@H]1CCCN([C@H]2CC[C@@H](O)CC2)C1` [P8-100], the “Log2 Fold change IL-4” value [1] is reported as -0.18 and the “Log2 Fold change IL-9” value [1] is reported as -6.78.

For `CO/N=C(/c1ccc2cc(OC)ccc2c1)[C@@H]1CCCN([C@H]2CC[C@@H](c3cc[nH]n3)CC2)C1` [WEHI-P70], the inhibition at 0.545 µM ([3]; Conc 0.545 µM, read-out: SARS-CoV-2 PLpro, UbRh dose-response) was 87.3%, the inhibition at 1.63 µM ([3]; Conc 1.63 µM, read-out: SARS-CoV-2 PLpro, UbRh dose-response) was 96.4% and the inhibition at 4.9 µM ([3]; Conc 4.9 µM, read-out: SARS-CoV-2 PLpro, UbRh dose-response) was 102%. For the same compound, the IC50 ([3]; IC50 (UbRh) SARS-CoV-2 PLpro) was 98 nM, the inhibition at […] ([3]; read-out: SARS-CoV-2 PLpro, UbRh dose-response) was 65.3% and 28.1% and the IC50 [4] was 94 nM. For the same compound, the “inhibition of SARS-CoV PLpro, UbRh dose-response replicate value” [4] was 98.7016 and 99.911 and 99.674 and 98.9699 and 100.405 and 100.228, the “SARS-CoV PLpro, UbRh hCoV Pan Activity dose-response” value ([4]; Conc 0.0149 µM) was 11.412 and 10.2397 and 10.016 and 11.8574 and the “SARS-CoV PLpro, UbRh hCoV Pan Activity dose-response” value ([4]; Conc 0.0448 µM) was 31.6247 and 32.2323 and 27.9576 and 29.7371. For the same compound, the “SARS-CoV PLpro, UbRh hCoV Pan Activity dose-response” value ([4]; Conc 3.63 µM) was 97.8161 and 97.4695 and 97.9055 and 98.3366, the “inhibition of SARS-CoV PLpro, UbRh dose-response replicate value” ([4]; Conc 98 µM) was 99.4348 and 99.7657 and 100.125 and the inhibition at 98 µM ([4]; Conc 98 µM, read-out: inhibition of SARS-CoV PLpro, UbRh dose-response replicate value) was 98.6%. The inhibition at […] ([4]; read-out: inhibition of SARS-CoV PLpro, UbRh dose-response replicate value) was 99.4%, the “inhibition of MERS-CoV PLpro, UbRh dose-response replicate value” [5] was -8.262 and -6.812 and -8.29 and -8.637 and -10.7207 and -11.1211 and -8.564 and -8.857 and the “inhibition of MERS-CoV PLpro, UbRh dose-response replicate value” ([5]; Conc 98 µM) was -10.7242 and -11.7377 and -6.2046 and -4.979. The “inhibition of HKU1 PLpro, UbRh dose-response replicate value” [6] was -6.039 and -6.635 and 8.689 and -11.8697 and -9.542 and -8.165 and -7.3684 and -16.402, the “inhibition of HKU1 PLpro, UbRh dose-response replicate value” ([6]; Conc 98 µM) was -3.115 and -4.878 and -6.077 and -8.873 and the “inhibition of OC43 PLpro, UbRh dose-response replicate value” [7] was -10.4521 and -4.6612 and -0.2116 and -6.41 and -12.4786 and -1.279 and -4.6859. For the same compound, the “inhibition of OC43 PLpro, UbRh dose-response replicate value” ([7]; Conc 98 µM) was -8.82 and -6.432 and -0.556 and -3.797, the IC50 [8] was 648 nM and the “inhibition of NL63 PL2pro, UbRh dose-response replicate value” [8] was 96.5311 and 98.0786 and 97.1472 and 94.6147 and 95.7019 and 95.1407. The “NL63 PL2pro, UbRh hCoV Pan Activity dose-response” value ([8]; Conc 3.63 µM) was 86.4411 and 86.623 and 87.2454 and 84.6973, the “inhibition of NL63 PL2pro, UbRh dose-response replicate value” ([8]; Conc 98 µM) was 98.2213 and 99.4112 and 98.0123 and the inhibition at 98 µM ([8]; Conc 98 µM, read-out: inhibition of NL63 PL2pro, UbRh dose-response replicate value) was 98.4%. The inhibition at […] ([8]; read-out: inhibition of NL63 PL2pro, UbRh dose-response replicate value) was 97.7% and 95.1%, the IC50 [9] was 26000 nM and the “inhibition of 229E PL2pro, UbRh dose-response replicate value” [9] was 46.2136 and 48.684 and 48.4508 and 18.0648 and 22.1853 and 20.9697. For the same compound, the “inhibition of 229E PL2pro, UbRh dose-response replicate value” ([9]; Conc 98 µM) was 70.621 and 72.3972 and 73.3316, the inhibition at […] ([9]; read-out: inhibition of 229E PL2pro, UbRh dose-response replicate value) was 44.4% and 18.9% and the inhibition at 98 µM ([9]; read-out: inhibition of 229E PL2pro, UbRh dose-response replicate value, Conc 98 µM) was 71.9%. The “selectivity over USP21” value [10] was “selective over USP21”.
